The text below walks through data of patent US11311560B2, “Cyclic plasmenylethanolamines” (MED-LIFE DISCOVERIES LP, priority 2017, dated 2022).

The test system of data set [1] is Pex7 homozygous hypomorphic animals (Pex7^neo/neo). The data set is described as follows: Sub-chronic (9 weeks) dosing with PPI-1040: plasmalogen levels in plasma, liver, lung. Particulars: 89.7 mg/Kg intraperitoneal, 3 doses per week. It counts as in vivo, mouse. As for the experimental part: Pex7 homozygous hypomorphic animals)(Pex7^neo/neo) were used as a model of rhizomelic chondrodysplasia punctata to further test the ability of PPI-1040 to augment plasmalogen levels in a deficient system, following 9 weeks of sub-chronic dosing. PPI-1040 was stored in a sealed ampoule in solution with dichloromethane under argon gas until immediately before use. At time of treatment the ampoule was opened and dichloromethane was evaporated off under nitrogen gas for 10 minutes. Neobee M-5 was then added and the solution vortexed to generate a 22.4 mg/mL formulation. Animals were dosed via intraperitoneal injections with doses adjusted by weight to ensure an 89.7 mg/Kg dose to each animal. Animals were sacrificed following 9 weeks of treatment with 3 doses administered per week (Monday, Wednesday and Friday). Blood samples were collected in EDTA tubes and then spun down in a clinical centrifuge. Plasma samples were stored at −80° C. until thawed for analysis. Tissue samples were harvested and flash frozen in liquid nitrogen and then stored at −80° C. All tissue samples were homogenized using liquid nitrogen, generating a fine powder. Extraction and plasmalogen analysis by LC-MS/MS was carried out as described above.

Data set [2] is described as follows: In vitro acid stability (pH 1-5, one hour, FI-MS/MS). The data set is classed as physicochemical. As for the experimental part: To test the ability of the vinyl ether in PPI-1040 to withstand the acidic nature of the stomach the compound was exposed to a range of acid strengths (pH 1-5). The stability of the vinyl bond was tested by exposing PPI-1040 (formulated as indicated above) to a pH range from 1-5. The pH solutions were made by serial 10-fold dilutions of 1M HCL in HPLC grade water until pH 4 is reached. Pure HPLC grade water was used as the control solution. The final dilution was completed by added a 20 μl aliquot to 200 μl of the PPI-1040 formulation resulting in a pH range from 1-5 (each condition was tested in triplicate). The mixture was vortexed at room temperature for one hour. Following the one hour incubation each solution was re-suspended in ethyl acetate to obtain 10 μl/ml solution which was analyzed using flow injection tandem mass spectrometry (FI-MS/MS) on a API4000™ mass spectrometer (Applied Biosystems) coupled with Agilent 1100 HPLC pump and auto sampler.

Data set [3] deals with wild-type mouse hippocampal brain slices. Kind of data set: Long term potentiation (LTP) on multi-electrode array. Particulars: 0.5 μM, monitored for 60 mins, vs vehicle (0.2% DMSO). The data set is classed as cell-based. As for the experimental part: It is hypothesized that brain plasmalogen levels affect neurotransmission. Accordingly, in this study, wild-type mouse hippocampal brain slices were incubated in artificial cerebro-spinal fluid containing either vehicle or PPI-1040. The slices were incubated on a multi-electrode array (MEA) with electrodes spaced 100 μm apart. A single electrode was selected to stimulate Schaffer collaterals cells which triggered field excitatory post-synaptic potential (fEPSP) in the stratum radiatum. After 10 minutes of control recording, in the presences of either PPI-1040 or vehicle, long term potentiation (LTP) was induced by a single train of 10 bursts composed of 4 stimuli at 100 Hz each with a 200 millisecond interval between.

The subject of a further data set is Pex7 hypomorph/null mice. Kind of data set: Open field test after 4 weeks oral treatment. It counts as in vivo, mouse. The source says: The Pex7 hypomorph/null model is a hypomorphic (B6;129S6-Pex7^tm2.3Brav/s9) mouse model on a mixed background (C57BL/6NCrl and 129S6/SvEvTac). The hypomorphic allele in Pex7 hypomorph/null was generated by inserting an inverse neo cassette into intron 2 and lox P sites surrounding exon 3. The Pex7 null allele was generated using (B6.C-Tg(cmv-cre)1Cgn/J) mouse. The Pex7 hypomorph/null mouse model has 90% survival, 0.016-0.257% of wild type Pex7 mRNA levels and 20-30% plasmalogen levels Pex7 hypomoprh/null mice (3-4 months); and wild-type animals, males and females included in treatments and behavioral tests. Pex7 hypomorph/null mice were randomly assigned, after a baseline open field test, into 3 treatment groups: PPI-1040, PPI-1011, and vehicle controls, n=6 mice per group). PPI-1011 or PPI-1040 at 50 mg/kg was given by oral gavage 5 days per week (Monday-Friday) for 4 weeks. During the treatment period, animals were weighed weekly and observed for signs of distress. The open field test was performed at the end of treatment. To avoid selection bias, data analysis was performed only at the study end. Animals were sacrificed after a 24-hour post the last dose.
The open field test is a behavioral test used to evaluate the general locomotor activity, exploratory and anxiety-like behaviour of mice in response to a novel environment. The animal is placed inside a custom made square, gray acrylic box measuring 40×40×40 cm and allowed to move freely for 5 minutes while being recorded by an overhead camera (camera model). The footage was analyzed by an automated tracking system (Any-maze Video Tracking Software, Stoelting Co, Wood Dale, Ill., USA), for total distance traveled (meters) & activity (mobility in seconds) time. The total distance traveled is the total distance that animal traveled during the test and the activity measures the amount of time the animal was active during the test.

[4] abbreviates: 50 mg/kg oral gavage, 5 days per week, 5 minutes test.

Entries after “also recorded” stand apart in the source; their conditions may differ.

On to `CC/C=C\C/C=C\C/C=C\C/C=C\C/C=C\C/C=C\CCC(=O)OC(CO/C=C\CCCCCCCCCCCCCC)COP1(=O)NCCO1` (stereo not shown) [PPI-1040, 1-(((Z)-hexadec-1-en-1-yl)oxy)-3-((2-oxido-1,3,2-oxazaphospholidin-2-yl)oxy)propan-2-yl (4Z,7Z,10Z,13Z,16Z,19Z)-docosa-4,7,10,13,16,19-hexaenoate], for which, in data set [1], the “16:0 plasmalogen pool in serum (FIG. 5: plasma)” value is given as “elevated to levels significantly above control”, the “liver levels of the target plasmalogen (16:0/22:6)” value was “elevated to above control levels”, the “liver total 16:0 plasmalogen pool” value is “elevated to above control levels” and the “lung levels of the target plasmalogen (16:0/22:6)” value is reported as “elevated to control levels”. For the same molecule, in data set [1], the “lung total 16:0 plasmalogen pool” value is given as “elevated to control levels” and the “target 16:0/22:6 ethanolamine plasmalogen in serum (FIG. 5: plasma)” value is listed as “elevated to levels significantly higher than control”. Further, in data set [2] (aqueous control and pH 1-5, one hour, room temperature), the “level of the cyclized (closed ring) form after incubation” value was “almost undetectable in all samples; also recorded: minimal intact PPI-1040 being observed”. The “cleavage of the sn-1 vinyl-ether bond (loss of sn-1 group)” value (shortened to “cleavage … (loss of sn-1 group)”) in data set [2] (control and pH 3-5, one hour) is “minimal loss of the sn-1 group”. In data set [2] (pH 1, one hour), the “cleavage … (loss of sn-1 group)” value was “overall degradation of the molecule; also recorded: largely degraded” and the “stability of open ring form (PlsEtn 16:0/22:6)” value is given as “very little being detected”. Besides, in data set [2] (pH 2, one hour), the “cleavage … (loss of sn-1 group)” value is “cleavage of the vinyl group is prevalent; also recorded: observed beginning at pH2” and the “stability of open ring form (PlsEtn 16:0/22:6)” value was “slight reduction”. Besides, in data set [3], the “long term potentiation (LTP) of fEPSP” value is “increased LTP compared to vehicle treated controls”. In the data set on Pex7 hypomorph/null mice (setting [4]), the “open field: time active” value was “significant decrease in activity and normalization of the hyperactive phenotype”; the “open field: total distance traveled” value was “significant decrease in activity and normalization of the hyperactive phenotype”. Moreover, the hyperactivity phenotype entry in the data set on Pex7 hypomorph/null mice (50 mg/kg oral, p<0.05) is “significant improvement”.
